# According to patent US10610498B2, “Oral veterinary composition with gabapentin” (priority 2015, dated 2020):
# “And” between values parts separate entries of the source, which are not always exact repeats. Equal entries are not always repeated. Where two headings read alike, the source gives them in different places.
# Tests used:
# [1] = system: dogs with moderate to severe osteoarthritis; assay: Pain caused by osteoarthritis in dogs, Helsinki Chronic Pain Index questionnaire; format: in vivo; details: Medians±EE
# Description: (§1) In addition to the tests performed for the treatment of epilepsy, the effect of gabapentin in the pain treatment in dogs caused by osteoarthritis was evaluated, 30 animals of race, age, weight and variable sex were used, with 3/5 of body condition and clinical and radiological signs from moderate to severe of osteoarthritis, according to the Bioarth scale. Two study groups were formed:
# (§2) a) G0-D Group: treated with fluoxetine at dose of 1 mg/Kg of body weight, every 12 hours, orally.
# (§3) b) G1-D Group: treated with gabapentin of 1.5-10 mg/Kg of body weight, every 12 hours, orally.
# (§4) The dogs were monitored 8 consecutive weeks by applying the questionnaires of the Subjective Clinical Evaluation System, Liverpool Osteoarthritis in Dogs and the Helsinki Chronic Pain Index to the owners of the dogs, before and after administration of the treatments.
# (§5) The results of the global observations made by the owners with the Helsinki Chronic Pain Index questionnaire expressed in Medians±EE are presented in Table 3. The Wilcoxon ranks test was performed using the SPSS Statistics program considering statistically significant values for a level of p<0.05.
# [2] = system: dogs with moderate to severe osteoarthritis; assay: Pain caused by osteoarthritis in dogs, Subjective Clinical Evaluation System; format: in vivo; details: for Subjective Clinical Evaluation System, global observations: Medians±EE; for Result for the pain treatment (different pain assessment questionnaires): dogs with osteoarthritis, oral, every 12 hours, 8 weeks
# Description: as §1, §2, §3, §4
# The Subjective Clinical Evaluation System includes the following evaluation points:
# 3) Mobility of the affected joint: (0) No limitation of movement and no crepitus is palpable, (1) slight decrease in range of motion (10-20%), no crepitus is palpable, (2) slight decrease in range of motion (10-20%) with palpable crepitation, (3) moderate decrease in range of motion (20-50%) and (4) severe decrease in range of motion (>50%) with palpable crepitus.
# 4) Hold the contralateral limb high: (0) quickly accept to raise the contralateral limb, (1) offer resistance to the contralateral limb elevation, but maintain its weight on the affected limb for more than one minute, (2) offer moderate resistance to the elevation of the contralateral limb and replaces it after 30 seconds, (3) it offers resistance to the elevation of the contralateral limb and replaces it after 10 seconds and (4) refuses to elevate the contralateral limb.
# Statistically significant values were considered for a level of p<0.05.
# [3] = system: dogs with moderate to severe osteoarthritis; assay: Pain caused by osteoarthritis in dogs, Liverpool Osteoarthritis in Dogs questionnaire; format: in vivo; set-up: scale not given here; details: Medians±EE
# Description: as §1, §2, §3, §4
# as §5, with “Liverpool Osteoarthritis in Dogs” for “Helsinki Chronic Pain Index”
# [4] = system: neuropathic pain; details: individually, maximum effect at 60 minutes post-treatment, cited from earlier work
# [5] = system: dogs diagnosed with idiopathic epilepsy; assay: Efficacy of gabapentin vs phenobarbital against idiopathic epilepsy in dogs (seizure episodes, adverse effects); format: in vivo; details: for Seizure number per month prior to the study: baseline; for Seizure number per month prior to the study / Changes in the type of seizure / Clinical adverse effects observed / Seizure number per month after the study: individual dogs; for Seizure number per month after the study: monitored 3 months
# Description: a) G0-E Group: treated with phenobarbital at dose of 2 mg/Kg of body weight, every 12 hours.
# b) G1-E Study Group: treated with gabapentin of 10 mg/Kg of body weight, divided 3 times a day by oral administration.
# c) G2-E Study Group: treated with gabapentin of 20 mg/Kg of body weight, divided 3 times a day by oral administration.
# Patients were monitored for 3 consecutive months, quantifying seizure episodes for each of the patients, obtaining the following: […]
# [6] = horses, cited from earlier work
# [7] = horses; 5 mg/Kg oral; cited from earlier work
# [8] = system: calf dehorning; details: gabapentin 15 mg/Kg oral, alone or with meloxicam; cited from earlier work
# [9] = reported in dogs; cited from earlier work
# [10] = system: dogs; details: cited from earlier work
# [11] = system: plasma proteins; details: cited from earlier work
# [12] = system: cats; details: for 10 and 12 days; cited from earlier work
# [13] = system: dogs; details: cited from earlier work; remark: listed apart in the source
# [14] = system: cats; details: cited from earlier work
# [15] = system: horses; details: 2 g/12 h/IV for 8 days; cited from earlier work
# [16] = G0-D, fluoxetine 1 mg/Kg every 12 hours orally, WEEK 0
# [17] = G0-D, fluoxetine 1 mg/Kg every 12 hours orally, WEEK 1
# [18] = G0-D, fluoxetine 1 mg/Kg every 12 hours orally, WEEK 2
# [19] = G0-D, fluoxetine 1 mg/Kg every 12 hours orally, WEEK 3
# [20] = G0-D, fluoxetine 1 mg/Kg every 12 hours orally, WEEK 4
# [21] = G0-D, fluoxetine 1 mg/Kg every 12 hours orally, WEEK 5
# [22] = G0-D, fluoxetine 1 mg/Kg every 12 hours orally, WEEK 6
# [23] = G0-D, fluoxetine 1 mg/Kg every 12 hours orally, WEEK 7
# [24] = G0-D, fluoxetine 1 mg/Kg every 12 hours orally, WEEK 8
# [25] = G1-D, gabapentin 1.5-10 mg/Kg every 12 hours orally, WEEK 0
# [26] = G1-D, gabapentin 1.5-10 mg/Kg every 12 hours orally, WEEK 1
# [27] = G1-D, gabapentin 1.5-10 mg/Kg every 12 hours orally, WEEK 2
# [28] = G1-D, gabapentin 1.5-10 mg/Kg every 12 hours orally, WEEK 3
# [29] = G1-D, gabapentin 1.5-10 mg/Kg every 12 hours orally, WEEK 4
# [30] = G1-D, gabapentin 1.5-10 mg/Kg every 12 hours orally, WEEK 5
# [31] = G1-D, gabapentin 1.5-10 mg/Kg every 12 hours orally, WEEK 6
# [32] = G1-D, gabapentin 1.5-10 mg/Kg every 12 hours orally, WEEK 7
# [33] = G1-D, gabapentin 1.5-10 mg/Kg every 12 hours orally, WEEK 8
# [34] = G1-E, gabapentin 10 mg/Kg divided 3 times a day, oral
# [35] = G2-E, gabapentin 20 mg/Kg divided 3 times a day, oral
# [36] = G0-E, phenobarbital 2 mg/Kg every 12 hours
smiles,measurement,setting,value
CNCCC(Oc1ccc(C(F)(F)F)cc1)c1ccccc1 (centres unmarked) [Fluoxetine],Helsinki Chronic Pain Index questionnaire,[1]; [16],21.5 ± 2.43
same,Helsinki Chronic Pain Index questionnaire,[1]; [17],20.5 ± 3.66
same,Helsinki Chronic Pain Index questionnaire,[1]; [18],20 ± 3.1
same,Helsinki Chronic Pain Index questionnaire,[1]; [19],15.5 ± 3.1
same,Helsinki Chronic Pain Index questionnaire,[1]; [20],15.5 ± 2.56
same,Helsinki Chronic Pain Index questionnaire,[1]; [21],15 ± 1.54
same,Helsinki Chronic Pain Index questionnaire,[1]; [22],14 ± 2.35
same,Helsinki Chronic Pain Index questionnaire,[1]; [23],13.5 ± 1.55
same,Helsinki Chronic Pain Index questionnaire,[1]; [24],13.5 ± 1.41
same,"Subjective Clinical Evaluation System, global observations",[2]; [16],8.5 ± 0.51
same,"Subjective Clinical Evaluation System, global observations",[2]; [20],8.5 ± 1.19
same,"Subjective Clinical Evaluation System, global observations",[2]; [24],8 ± 1.79
same,Result for the pain treatment (different pain assessment questionnaires),[2],significantly favorable
same,Liverpool Osteoarthritis in Dogs questionnaire,[3]; [16],26 ± 2.2
same,Liverpool Osteoarthritis in Dogs questionnaire,[3]; [17],23.5 ± 5.4
same,Liverpool Osteoarthritis in Dogs questionnaire,[3]; [18],26 ± 5.19
same,Liverpool Osteoarthritis in Dogs questionnaire,[3]; [19],22.5 ± 4.52
same,Liverpool Osteoarthritis in Dogs questionnaire,[3]; [20],22.5 ± 4.38
same,Liverpool Osteoarthritis in Dogs questionnaire,[3]; [21],23 ± 2.95
same,Liverpool Osteoarthritis in Dogs questionnaire,[3]; [22],23 ± 2.56
same,Liverpool Osteoarthritis in Dogs questionnaire,[3]; [23],22.5 ± 1.95
same,Liverpool Osteoarthritis in Dogs questionnaire,[3]; [24],20.5 ± 1.35
NCC1(CC(=O)O)CCCCC1 [Gabapentin],Helsinki Chronic Pain Index questionnaire,[1]; [25],22 ± 1.75
same,Helsinki Chronic Pain Index questionnaire,[1]; [26],15 ± 3.23
same,Helsinki Chronic Pain Index questionnaire,[1]; [27],20 ± 2.87
same,Helsinki Chronic Pain Index questionnaire,[1]; [28],15 ± 3.06
same,Helsinki Chronic Pain Index questionnaire,[1]; [29],18 ± 2.98
same,Helsinki Chronic Pain Index questionnaire,[1]; [30],17 ± 3.68
same,Helsinki Chronic Pain Index questionnaire,[1]; [31],18 ± 3.03
same,Helsinki Chronic Pain Index questionnaire,[1]; [32],18 ± 2.8
same,Helsinki Chronic Pain Index questionnaire,[1]; [33],16 ± 2.42
same,antihyperalgesic effect,[4]; gabapentin 17.8 mg/Kg subcutaneously,55%
same,"Subjective Clinical Evaluation System, global observations",[2]; [25],9 ± 0.86
same,"Subjective Clinical Evaluation System, global observations",[2]; [29],4 ± 1.02
same,"Subjective Clinical Evaluation System, global observations",[2]; [33],6 ± 0.73
same,Result for the pain treatment (different pain assessment questionnaires),[2],significantly favorable
same,Reduction of seizures,"[5]; 10 mg/kg oral, month 3 of treatment, best result of the doses evaluated",significant reduction of seizures
same,Seizure number per month prior to the study,[5]; [34],11 and 4 and 5 (2×) and 8 and 10 and 6 and 1 and 3 and 9
same,Changes in the type of seizure,[5]; [34],NONE (6×) and PARTIAL CONVULSIONS (4×)
same,Clinical adverse effects observed,[5]; [34],NONE (9×) and LIGHT SEDATION
same,Seizure number per month after the study,[5]; [34],0 (7×) and RESCUED (2×) and 1
same,Seizure number per month prior to the study,[5]; [35],8 (3×) and 2 (2×) and 12 and 6 and 4 (2×) and 3
same,Changes in the type of seizure,[5]; [35],PARTIAL CONVULSIONS (3×) and NONE (4×) and CLONIC TONIC (3×)
same,Clinical adverse effects observed,[5]; [35],LIGHT SEDATION (3×) and NONE (6×) and SOMNOLENCE
same,Seizure number per month after the study,[5]; [35],2 (2×) and 0 (4×) and 1 (2×) and RESCUED and 3
same,half-life,[6]; 20 mg/kg IV,8.5 h
same,half-life,[6]; 20 mg/kg p.o.,7.7 h
same,half-life,[7],3.4 h
same,average daily gain compared to the control,[8],significantly decreases
same,concentration of substance P compared to the control,[8],significantly decreases
same,half-life,[9],3.4 h
same,Liverpool Osteoarthritis in Dogs questionnaire,[3]; [25],27 ± 2.85
same,Liverpool Osteoarthritis in Dogs questionnaire,[3]; [26],24 ± 2.26
same,Liverpool Osteoarthritis in Dogs questionnaire,[3]; [27],22 ± 2.35
same,Liverpool Osteoarthritis in Dogs questionnaire,[3]; [28],23 ± 3.15
same,Liverpool Osteoarthritis in Dogs questionnaire,[3]; [29],22 ± 3.56
same,Liverpool Osteoarthritis in Dogs questionnaire,[3]; [30],26 ± 3.15
same,Liverpool Osteoarthritis in Dogs questionnaire,[3]; [31],26 ± 2.86
same,Liverpool Osteoarthritis in Dogs questionnaire,[3]; [32],23 ± 2.67
same,Liverpool Osteoarthritis in Dogs questionnaire,[3]; [33],20 ± 2.35
"CCC1(c2ccccc2)C(=O)NC(=O)NC1=O [Phenobarbital, phenobarbital]",Seizure number per month prior to the study,[5]; [36],3 and 11 and 13 and 2 (3×) and 8 and 7 and 10 and 1
same,Clinical adverse effects observed,[5]; [36],NONE (6×) and HYPER- and LIGHT SEDATION (3×)
same,Seizure number per month after the study,[5]; [36],0 (5×) and 4 and 1 (4×)
CC(=O)Oc1ccccc1C(=O)O [acetylsalicylic acid],dose at which vomiting and gastric ulcers have been described,[10]; intake for 1 week,greater than 50 mg/kg/24 h
same,dose at which vomiting and gastric ulcers have been described,[10]; intake for 4 weeks,> 100 mg/kg/24 h
same,bound to plasma proteins,[11],90%
same,toxic dose,[12],80-120 mg/Kg/24 h
CN1CC[C@]23c4c5ccc(O)c4O[C@H]2[C@@H](O)C=C[C@H]3[C@H]1C5 [morphine],antihyperalgesic effect,[4]; morphine 3.2 mg/Kg subcutaneously,51.7%
CC(=O)Nc1ccc(O)cc1 [paracetamol],toxic dose,[13],150 mg/kg
same,toxic dose,[14],50 mg/kg
CCCCC1C(=O)N(c2ccccc2)N(c2ccccc2)C1=O [phenylbutazone],adverse effects of claudication treatment,[15],gastric ulcers and necrotizing colitis with protein loss
